Experimental data from patent publication US11771707B2, “Pharmaceutical compositions and uses thereof” (SpineThera, priority 2016, dated 2023).

What was measured:
[1] = in vitro release in 1% C-TAB buffer at pH 3.5; type: physicochemical
From the text: Without wishing to be bound by theory, pharmaceutical compositions of the type described herein are not expected to elicit any significant or appreciable degree of inflammatory response or cause necrosis. Histological examination may reveal the microspheres to be localized and agglomerated within the epidural space at the site of injection with no evidence of the presence of the injection vehicle after about 2 days. Contents of the treated epidural pocket can be recovered by dissection. It can be reasonably expected that dexamethasone acetate will be released continuously over approximately 45 days under in vitro conditions of 1% C-TAB buffer at pH 3.5, with <20% of the drug released in 1 day, 30-60% in 7 days, 60-85% in 28 days and not less than 85% in 45 days, with complete microsphere polymer degradation in about 16 weeks/112 days.

[2] = brain; cited from earlier work
[3] = in vitro release of dexamethasone acetate from microspheres; type: physicochemical
Method: The microspheres, and compositions comprising those microspheres, of the various embodiments described herein are analyzed using USP methods known in the art to determine, among other things, the pH of the compositions, the in vitro release of API, and the impurities present. […] Without wishing to be bound by theory, it can be reasonably expected that dexamethasone acetate will release continuously over about 84 days in vitro, with about 20% of the drug released in 3 days, 50% in 25 days, and 90% in 60 days. It will be understood that the release profile may be adjusted by one or more of the following, including combinations: increasing or decreasing drug to polymer ratio; increasing or decreasing polymer molecular weight; increasing or decreasing particle size; increasing or decreasing polymer degradation time (by decreasing or increasing glycolic acid content); or increasing or decreasing hydrophilicity of microsphere surface.

period of continuous release ([1]; 1% C-TAB buffer pH 3.5): approximately 45 days | drug released ([1]; 1% C-TAB buffer pH 3.5, in 1 day): < 20% | drug released ([1]; 1% C-TAB buffer pH 3.5, in 7 days): 30-60% | drug released ([1]; 1% C-TAB buffer pH 3.5, in 28 days): 60-85% | drug released ([1]; 1% C-TAB buffer pH 3.5, in 45 days): not less than 85% | period of continuous release [3]: about 84 days | drug released ([3]; in 3 days): about 20% | drug released ([3]; in 25 days): ~50% | drug released ([3]; in 60 days): ~90%
Structure (SMILES): CC(=O)OCC(=O)[C@@]1(O)[C@H](C)C[C@H]2[C@@H]3CCC4=CC(=O)C=C[C@]4(C)[C@@]3(F)[C@@H](O)C[C@@]21C [dexamethasone acetate, 9 alpha-fluoro-11-beta, 17-alpha, 21-trihydroxy-16 alpha-methylpregna-1,4-diene-3,20-dione 21-acetate]
anti-inflammatory effect and tissue water content [2]: anti-inflammatory effect in the brain without reducing tissue water content
